Experimental findings from PubChem BioAssay (NCI) are described below.

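The compound was tested at five concentrations on cells cultured in 96-well plates, with a 48-hour exposure period. The concentration for 50% growth inhibition is given as GI50. At the TGI there is no net growth.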

Some test systems named below: CCRF-CEM leukemia; M14 melanoma; HOP-92 NSCLC; 786-0 renal; DMS 273 small cell lung; CAKI-1 renal; ACHN renal; SNB-78 CNS; MDA-MB-435; BT-549 breast.
Common to all, as to assay: NCI anticancer screen, dose series, 48 h

`COc1ccc2c(c1)CCCN2CCCCCCCCCCN(CCC(C)C)CCC(C)C`: the TGI was found to be 32.9 µM in the assay on CCRF-CEM leukemia; 27.2 µM with M14 melanoma; 17 µM with HOP-92 NSCLC; 27.5 µM in the assay on 786-0 renal; 23.2 µM in the assay on DMS 273 small cell lung; 28.9 µM in the assay on CAKI-1 renal. Besides, the results for the TGI in the assay on ACHN renal and with SNB-78 CNS were 22.8 µM and 38.1 µM, respectively.
With `COc1ccc2c(C(=O)c3cn(CCN4CCOCC4)c4ccccc34)cccc2c1`, the TGI was > 100 µM in the assay with MDA-MB-435; 85.5 µM in the assay with CCRF-CEM leukemia; > 87.5 µM with M14 melanoma; > 100 µM with BT-549 breast; > 100 µM in the assay with HOP-92 NSCLC; > 100 µM in the assay on 786-0 renal. Besides, the TGI with CAKI-1 renal and in the assay with ACHN renal was > 100 µM in each case.
Consider `C[C@H]1C(=O)O[C@@H]2CCN3CC=C(COC(=O)[C@](C)(O)[C@@]1(C)O)[C@H]23`, for which the TGI in the assay with MDA-MB-435, with CCRF-CEM leukemia, with M14 melanoma, with BT-549 breast, in the assay on HOP-92 NSCLC and in the assay with 786-0 renal was > 100 µM in each case. Besides, the TGI with CAKI-1 renal and in the assay with ACHN renal was > 100 µM in each case.
Turning to `CC(=O)NNc1nc(-c2ccc([N+](=O)[O-])cc2)c(C#N)c(=O)n1C`, the TGI with MDA-MB-435 was > 100 µM; in the assay with CCRF-CEM leukemia it was > 100 µM; in the assay on M14 melanoma, > 100 µM; in the assay with BT-549 breast, 23 µM; in the assay with HOP-92 NSCLC it was 33.3 µM; in the assay on 786-0 renal it was 47 µM. The TGI with CAKI-1 renal and in the assay with ACHN renal was > 100 µM in each case.
Take `CN(C)CCNC(=O)c1cccc2ccc(-c3ccc(F)cc3)nc12`: the TGI in the assay with CCRF-CEM leukemia was 15.8 µM; with HOP-92 NSCLC, 18 µM; in the assay with DMS 273 small cell lung, 11.8 µM; with CAKI-1 renal, 15.3 µM; in the assay with SNB-78 CNS it was 31.4 µM.
`Nc1ccccc1N=Cc1cc2cc([N+](=O)[O-])ccc2s1`: the TGI is > 100 µM with MDA-MB-435; 22.8 µM in the assay on CCRF-CEM leukemia; 82.8 µM in the assay with M14 melanoma; 52.9 µM in the assay with BT-549 breast; 55.5 µM with HOP-92 NSCLC; 29.2 µM in the assay with 786-0 renal. Moreover, the TGI in the assay with CAKI-1 renal was > 100 µM; in the assay on ACHN renal it was 40.3 µM.
Turning to `COc1ccc(C2=C3SC=c4ccccc4=C3ON=C2c2ccccc2)cc1`, the TGI with MDA-MB-435, in the assay with CCRF-CEM leukemia, with M14 melanoma, in the assay on BT-549 breast, with HOP-92 NSCLC and with 786-0 renal was > 100 µM throughout. Besides, the TGI in the assay with CAKI-1 renal and in the assay on ACHN renal was > 100 µM throughout.
As to `N=C1C(=N)c2ccccc2-c2ccccc21.N=C1C(=N)c2ccccc2-c2ccccc21.N=C1C(=N)c2ccccc2-c2ccccc21.[Cl-].[Ru+2]`, the TGI in the assay on M14 melanoma is 3.72 µM; with HOP-92 NSCLC, 3.09 µM; in the assay with 786-0 renal it was 28.5 µM; in the assay on DMS 273 small cell lung, 5.45 µM; with ACHN renal, 3.29 µM; in the assay on SNB-78 CNS it was 3.88 µM. In addition, the results for the GI50 in the assay with HOP-92 NSCLC, with DMS 273 small cell lung and in the assay with SNB-78 CNS were 1.6 µM, 2.15 µM and 1.65 µM, respectively.
With `Nc1n[nH]c(=O)c2c1c(I)cn2C1OC(CO)C(O)C1O` (configuration not stated), the TGI was 4.12 µM in the assay on CCRF-CEM leukemia; 18.8 µM in the assay on M14 melanoma; 3.05 µM in the assay on HOP-92 NSCLC; 2.63 µM with DMS 273 small cell lung; > 100 µM with ACHN renal; 6.8 µM in the assay on SNB-78 CNS.
Regarding `NCCc1cc(O)c(O)cc1O`, the TGI is 32.7 µM in the assay on MDA-MB-435; 23.6 µM in the assay with CCRF-CEM leukemia; 92.5 µM with M14 melanoma; 70.6 µM with BT-549 breast; 59.5 µM with HOP-92 NSCLC; > 69.1 µM in the assay on 786-0 renal. For the same molecule, the figures for the TGI with CAKI-1 renal and in the assay with ACHN renal were 61.5 µM and 60.1 µM, respectively. Also, the GI50 with HOP-92 NSCLC is 10 µM.
Consider `O=C1NI(C#Cc2ccccc2)c2ccccc21`, for which the TGI was > 100 µM in the assay with MDA-MB-435; 88.9 µM with CCRF-CEM leukemia; > 100 µM in the assay on M14 melanoma; > 100 µM with BT-549 breast; > 100 µM in the assay with 786-0 renal; > 100 µM in the assay on CAKI-1 renal.
`COc1cc(/C=C/C(=O)Oc2ccc(NC(C)=O)cc2)ccc1C(=O)O/C=C/c1ccccc1`: the TGI in the assay on CCRF-CEM leukemia, with HOP-92 NSCLC, in the assay with DMS 273 small cell lung and with SNB-78 CNS was > 100 µM throughout.
Regarding `CN(C)CCCn1cnc2cc(Cl)c(Cl)cc21`, the TGI was > 100 µM in the assay with MDA-MB-435; > 100 µM in the assay with CCRF-CEM leukemia; 36.1 µM in the assay on M14 melanoma; > 100 µM with BT-549 breast; > 100 µM with 786-0 renal; > 100 µM in the assay on CAKI-1 renal. Moreover, the TGI in the assay with ACHN renal was > 100 µM.
As to `FC(F)(F)c1ccc2c(c1)nc(-c1ccc(Cl)cc1)n2CC1CCCN2CCCCC12` (configuration not stated), the TGI with MDA-MB-435 worked out at 35.8 µM; in the assay with CCRF-CEM leukemia, 36 µM; in the assay with M14 melanoma, 28 µM; with BT-549 breast it was 27.9 µM; in the assay on HOP-92 NSCLC, 29.1 µM; with 786-0 renal, 27 µM. Further, the TGI in the assay with CAKI-1 renal stood at 33.3 µM; with ACHN renal, 27.9 µM.
With `CC(C)(C)[Si](C)(C)Oc1ccc(C2CNC(=O)C23CCC(=O)N3Cc2ccccc2)cc1` (configuration not stated), the TGI was 29.9 µM with MDA-MB-435; > 100 µM with CCRF-CEM leukemia; 35 µM in the assay with M14 melanoma; 33.1 µM in the assay on BT-549 breast; 34.6 µM with HOP-92 NSCLC; 45.3 µM in the assay on 786-0 renal. The TGI in the assay on CAKI-1 renal stood at 45 µM; with ACHN renal it was 30.9 µM.
With `Oc1cn(-c2ccc(Cl)cc2)nc1-c1n[nH]c(=S)n1-c1ccccc1`, the TGI in the assay on MDA-MB-435 was 5.09 µM; in the assay with M14 melanoma, 20.4 µM; in the assay on HOP-92 NSCLC, > 100 µM; in the assay with 786-0 renal it was 27.1 µM; in the assay on CAKI-1 renal, 35.3 µM; in the assay on ACHN renal, > 100 µM.
On to `COC(C)(C)OCCN1CCN(CCN2C3=C(C=C(C(C)=O)C3)Sc3ccccc32)CC1`, for which the TGI with MDA-MB-435 amounted to 30.9 µM; with CCRF-CEM leukemia, 32.4 µM; with M14 melanoma it was 40.4 µM; in the assay with BT-549 breast, 44.1 µM; in the assay on HOP-92 NSCLC, 92.9 µM; with 786-0 renal, 36 µM. The TGI in the assay on CAKI-1 renal stood at 48.2 µM; in the assay with ACHN renal, 35.5 µM.
For the molecule `NCCCn1c2c(c3ccc([N+](=O)[O-])cc3c1=O)C(=O)c1ccccc1-2`, the GI50 in the assay on MDA-MB-435 was 0.322 µM; with CCRF-CEM leukemia, 0.135 µM; with M14 melanoma, 0.161 µM; with BT-549 breast, 0.235 µM; with HOP-92 NSCLC, 0.34 µM; in the assay on CAKI-1 renal, 0.0276 µM. In addition, the GI50 with ACHN renal is 0.0198 µM. The TGI is 2.08 µM in the assay with MDA-MB-435; > 50 µM in the assay with CCRF-CEM leukemia; 1.06 µM in the assay on M14 melanoma; 0.881 µM with BT-549 breast; 1.72 µM with HOP-92 NSCLC; 0.494 µM in the assay on CAKI-1 renal. The TGI in the assay with ACHN renal was determined as 0.0885 µM.
For the molecule `Cc1c2cccc-2c(OCCO)cc2c3ccccc3n(C)c12`, the TGI in the assay on MDA-MB-435 is 25.2 µM; in the assay with CCRF-CEM leukemia it was 7.53 µM; with M14 melanoma it was 12.2 µM; in the assay on BT-549 breast, 13.4 µM; in the assay with HOP-92 NSCLC, 6.13 µM; in the assay on 786-0 renal, 16.2 µM. For the same molecule, the TGI in the assay on CAKI-1 renal is 26.6 µM; in the assay with ACHN renal, 24 µM.
With `Cc1cc2c(cc1C(=O)c1ccc(N)cc1)OCO2`, the TGI with MDA-MB-435 is 23.4 µM; with CCRF-CEM leukemia, > 100 µM; with M14 melanoma, > 100 µM; in the assay with BT-549 breast, > 100 µM; in the assay with HOP-92 NSCLC, > 100 µM; in the assay with 786-0 renal, > 100 µM. For the same molecule, the TGI in the assay with CAKI-1 renal was 66.4 µM; in the assay with ACHN renal, > 100 µM.
With `COc1ccc(/C(Cl)=C(\C=O)c2ccc(OC)cc2)cc1`, the TGI in the assay with CCRF-CEM leukemia, in the assay with M14 melanoma, with DMS 273 small cell lung, with CAKI-1 renal, in the assay with ACHN renal and in the assay on SNB-78 CNS was > 100 µM in each case.
`CCc1nc(N)nc(N)c1-c1ccc([N+](C)(C)C)cc1`: the TGI with MDA-MB-435, with CCRF-CEM leukemia, with M14 melanoma, in the assay with BT-549 breast, in the assay on HOP-92 NSCLC and with 786-0 renal was > 100 µM in each case. Also, the TGI with CAKI-1 renal and in the assay on ACHN renal was > 100 µM in each case.
On to `O=P1(c2ccccc2)Nc2ccccc2SSc2ccccc2N1`, for which the TGI was found to be 62.8 µM in the assay with CCRF-CEM leukemia; 30.7 µM with HOP-92 NSCLC; 33.7 µM in the assay with DMS 273 small cell lung; 32.4 µM in the assay with CAKI-1 renal; 56.3 µM with SNB-78 CNS.
As to `Cc1cc(/N=C/c2ccc(F)cc2)n(-c2ccccc2)n1`, the TGI in the assay with MDA-MB-435, with CCRF-CEM leukemia, with M14 melanoma, in the assay on BT-549 breast, in the assay with HOP-92 NSCLC and in the assay with 786-0 renal was > 100 µM throughout. In addition, the TGI with CAKI-1 renal and in the assay with ACHN renal was > 100 µM in each case.
As to `CCOC(=O)c1c2c(n(Cc3ccccc3)c1C)C(=O)C(=O)c1ccccc1-2`, the TGI in the assay with MDA-MB-435 came to 0.112 µM; in the assay with M14 melanoma it was 0.966 µM; with HOP-92 NSCLC, 3.17 µM; in the assay on 786-0 renal it was 1.49 µM; in the assay on CAKI-1 renal, 0.984 µM; with ACHN renal, 1.92 µM.
